Experimental findings from PMC10485906, “Development of a Dihydroquinoline–Pyrazoline GluN2C/2D-Selective Negative Allosteric Modulator of the N-Methyl-D-aspartate Receptor” (ACS Chemical Neuroscience, 2023) are described below.

Series [1] can be described thus: Liver microsome stability, mouse. The format is in vitro ADME. To be noted: CD-1, mouse; for half-life at 3 μM / remaining at 0.5 h, 3 µM: liver microsomes; for half-life at 3 μM: incubation up to 30 min, read-out: liver microsome stability T1/2, mouse; for microsomal CLint at 3 μM: mouse liver microsomes; for remaining at 0.5 h, 3 µM: over the assay time course (30 min), read-out: % remaining, mouse LMs. The method, then:
Human liver microsomes (HLMs, 20 mg/mL) and CD-1 mouse liver microsomes (MLMs, 20 mg/mL) were purchased from Xenotech. NADPH was purchased from Sigma-Aldrich and prepared in 10 mM stock solutions of distilled H2O (Invitrogen UltraPure). Verapamil and diphenhydramine were both purchased from Sigma-Aldrich and served as positive controls for HLM and MLM stability, respectively. Test compounds and positive controls were initially dissolved in DMSO to make 10 mM stock solutions. Sample solutions were then further diluted in 70% MeOH/H2O or 100% MeCN to 500 μM. Next, the reactions were prepared by mixing human or mouse liver microsomes (55 μL) with potassium phosphate buffer (100 mM, […]) in 1.5 mL Eppendorf tubes. The test compounds (6.6 μL of 500 μM solution) were subsequently added to the suspensions, and the reaction mixtures were incubated at 37 °C for 5 min. Afterward, the liver microsome reactions were initiated with 110 μL of 10 mM NADPH and further incubated at 37 °C for the designated time course of the study. This procedure provided experiments with a final volume of 1100 μL (<0.6% organic solvent content), a concentration for HLMs and MLMs of 1 mg/mL, and a final test compound concentration of 3 μM. Aliquots (100 μL) were removed from each reaction mixture in duplicate at 0, 5, 10, 15, and 30 min time intervals and quenched with 100 μL of cold internal standard solution (ISTD, 2 μM 7-ethoxy-d5-coumarin in MeOH or MeCN). Quenched aliquots were then centrifuged at 12 500 g for 5–10 min, and the resulting supernatants were withdrawn and placed in LC-MS vials to be analyzed by LC-MS/MS (Agilent G6460C QQQ MS coupled with an Infinity II 1260 HPLC). Each test compound was run in tandem with positive and negative control experiments for quality assurance. Positive control reactions were conducted at a final volume of 550 μL for a single run at each time point. Lastly, the negative control experiment was conducted with test compounds and liver microsomes in the absence of NADPH (150 μL) and analyzed at the 30 min time point.
For both LM and plasma assays, each data point was analyzed in triplicate using between blank washes to avoid carry over and to equilibrate the column for the subsequent runs. Averages of these triplicates for individual compounds at each time point were then normalized to the data at 0 min, representing 100% of the test compound remaining or 0% metabolism. Half-lives (t1/2) were calculated by plotting ln of % test compound remaining versus time and performing linear regression to determine slope. Slope = −k and t1/2 = 0.693/k for first-order kinetics (see Figures S5 and S6 for a representative example).

Series [2] concerns the target T1, GluN1/GluN2B (Rattus norvegicus, UniProt P35439+Q00960).
T1 construct: GluN2B (NM_012574.1), GluN2C (NM_012575.3), and GluN2D (NM_022797.2) were provided by; expressed in transfected cells; host or cells: Xenopus laevis oocytes (cRNA injection)
Kind of series: Two-electrode voltage-clamp recordings, Xenopus laevis oocytes, GluN1/GluN2B. The format is cell-based. To be noted: 100 μM glutamate, 30 μM glycine; for remaining activity at 30 µM: 30 μM test compound, mean ± SEM, read-out: I 30 μM / I control GluN2B; for IC50: read-out: IC50 GluN2B [95% CI]. The method, then: (§1) All target compounds were evaluated for NMDAR antagonism using two-electrode voltage-clamp recordings from Xenopus laevis oocytes coexpressing recombinant GluN1 and GluN2A-D subunits (Table 1).[32],[42],[33] All analogues were assessed as either a racemic (2b, 2e–2r) or diastereomeric (2d) mixture to simplify purification and streamline in vitro analysis. […] Moreover, as illustrated by the significant loss of NMDAR activity observed with nitrile 2e, the DQP allosteric site necessitated an H-bond donor/acceptor relationship at the carboxylate position. […] The loss of NMDAR activity observed with the trifluoro analogue 2j (Table S1) reinforced the necessity for an H-bond donor/acceptor relationship to maintain allosteric binding and established that fluorine substitution alone is ineffective. […] A single methyl substitution of the amide in compound 2q improved selectivity against GluN2A and had similar potency as 2a, whereas dual methyl substitution reduced potency (2r). We expect that this is likely due to the ability of the […] of the amide to accept hydrogen bonds while the amide can readily donate a proton.
(§2) Unfertilized Xenopus laevis oocytes were obtained from Ecocyte (Austin, TX), or ovaries were purchased from Xenopus 1 (Dexter, MI) and oocytes prepared as previously described.[42],[47] Two-electrode voltage-clamp recordings were performed on oocytes expressing recombinant rat GluN1/GluN2A, GluN1/GluN2B, GluN1/GluN2C, or GluN1/GluN2D. cDNAs for rat GluN1-1a (referred to as GluN1; NCBI Reference Sequence NM_017010.2), GluN2A (NM_012573.4), GluN2B (NM_012574.1), GluN2C (NM_012575.3), and GluN2D (NM_022797.2) were provided by Dr. S. Heinemann from the Salk Institute, Dr. S. Nakanishi from Kyoto University, and Dr. P. Seeburg from the University of Heidelberg. Oocyte isolation, cRNA synthesis, and cRNA injections were performed as previously described.[32],[33],[47] Briefly, Xenopus laevis oocytes were injected with 5–10 ng of cRNA in RNase-free water with the GluN1:GluN2 ratio ranging from 1:1 to 1:5. Oocytes were incubated at 15–19 °C in Barth’s solution consisting of (in mM) 88 NaCl, 1 KCl, 2.4 NaHCO3, 10 HEPES, 0.82 MgSO4, 0.33 Ca(NO3)2, and 0.41 CaCl2 supplemented with 100 μg/mL gentamycin, 40 μg/mL streptomycin, and 50 μg/mL penicillin. Recordings were performed 2–4 days after injection with extracellular recording solution containing (in mM) 90 NaCl, 1 KCl, 10 HEPES, 0.5 BaCl2, and 0.01 EDTA at pH 7.4 adjusted with NaOH. To prevent a gradual increase in current response over the course of the experiment, some oocytes expressing GluN1/GluN2A were injected with 20–50 nL of 2–50 mM K-BAPTA. Concentration–response curves for test compounds were generated by applying a maximally effective concentration of glutamate (100 μM) and glycine (30 μM), followed by glutamate and glycine with variable concentrations of test compounds up to 30 μM. The test compounds were prepared as 20 mM stock solutions in DMSO and diluted to the final concentration in recording solution. The DMSO content was 0.05–0.5% (v/v). […] Methods for off-target analysis are given in the Supporting Information.
(§3) Confidence intervals were determined for the log(IC50). The time course of relaxation during inhibitor application or deactivation following rapid removal of NMDA or glutamate was fitted by the equation [drawing 5] 2
A general note: Two-electrode voltage clamp is typically applied to oocytes expressing channels or transporters.

The target of series [3] is T2, GluN1/GluN2B (Rattus norvegicus, UniProt Q00960).
T2 construct: GluN2B (NM_012574.1), GluN2C (NM_012575.3), and GluN2D (NM_022797.2) were provided by; expressed in transfected cells; host or cells: Xenopus laevis oocytes (cRNA injection)
T2 sequence (Q00960 27-1482, other chains not shown): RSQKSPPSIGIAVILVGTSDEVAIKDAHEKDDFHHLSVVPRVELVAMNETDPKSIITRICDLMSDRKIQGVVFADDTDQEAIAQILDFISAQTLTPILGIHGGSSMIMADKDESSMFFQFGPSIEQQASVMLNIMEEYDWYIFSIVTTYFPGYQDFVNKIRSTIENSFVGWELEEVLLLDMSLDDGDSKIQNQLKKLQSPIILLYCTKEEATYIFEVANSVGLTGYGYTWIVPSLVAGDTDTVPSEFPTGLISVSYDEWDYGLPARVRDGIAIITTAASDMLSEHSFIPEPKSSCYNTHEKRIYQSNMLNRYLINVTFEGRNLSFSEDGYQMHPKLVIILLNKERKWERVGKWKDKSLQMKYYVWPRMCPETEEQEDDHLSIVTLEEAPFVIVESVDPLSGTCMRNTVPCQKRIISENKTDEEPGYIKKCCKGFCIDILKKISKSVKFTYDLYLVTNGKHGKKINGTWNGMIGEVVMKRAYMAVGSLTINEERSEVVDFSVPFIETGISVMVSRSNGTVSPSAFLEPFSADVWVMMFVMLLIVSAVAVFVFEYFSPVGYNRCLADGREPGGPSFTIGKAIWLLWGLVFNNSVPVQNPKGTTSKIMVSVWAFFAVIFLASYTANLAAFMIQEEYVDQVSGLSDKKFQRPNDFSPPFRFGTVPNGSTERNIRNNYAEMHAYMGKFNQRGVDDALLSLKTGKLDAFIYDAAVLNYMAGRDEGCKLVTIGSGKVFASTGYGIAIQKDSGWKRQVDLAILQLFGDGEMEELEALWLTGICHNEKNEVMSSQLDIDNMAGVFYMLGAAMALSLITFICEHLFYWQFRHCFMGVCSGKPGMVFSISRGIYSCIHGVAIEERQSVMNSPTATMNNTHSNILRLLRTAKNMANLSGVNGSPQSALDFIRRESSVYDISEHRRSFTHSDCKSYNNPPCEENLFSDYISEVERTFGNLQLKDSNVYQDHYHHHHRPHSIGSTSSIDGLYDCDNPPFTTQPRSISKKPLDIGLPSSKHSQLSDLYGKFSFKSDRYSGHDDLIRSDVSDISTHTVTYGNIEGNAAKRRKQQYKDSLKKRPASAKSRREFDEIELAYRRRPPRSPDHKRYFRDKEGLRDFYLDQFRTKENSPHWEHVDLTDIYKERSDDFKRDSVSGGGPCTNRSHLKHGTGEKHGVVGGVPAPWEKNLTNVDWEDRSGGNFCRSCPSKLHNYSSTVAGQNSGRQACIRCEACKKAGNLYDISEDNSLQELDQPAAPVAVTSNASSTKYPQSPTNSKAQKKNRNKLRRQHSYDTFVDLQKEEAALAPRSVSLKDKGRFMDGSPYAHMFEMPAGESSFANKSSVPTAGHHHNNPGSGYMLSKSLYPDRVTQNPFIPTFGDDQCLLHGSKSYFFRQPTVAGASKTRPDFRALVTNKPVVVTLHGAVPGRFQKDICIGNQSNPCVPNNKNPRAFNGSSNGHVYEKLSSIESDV
The description is as above. It is filed as cell-based. As to conditions: mean ± SEM; for I3 μM/Icontrol GluN2B: tested at 3 μM; for I3 μM/Icontrol GluN2B / I / I control GluN2B: 100 μM glutamate, 30 μM glycine; for I / I control GluN2B: tested at 10 μM (footnote b). The method, then: as §1, §2, §3

Where “and” joins values, the source holds several entries; their conditions need not be identical. Identical values can stand only once. Marks after values point to notes of the source that are not given here. Some results are limits rather than exact numbers.

T1 sequence (Q00960 27-1482, other chains not shown): as above

As a reminder, the microsomal CLint is the rate of metabolic loss divided by the concentration. A lower microsomal CLint goes with slow turnover. `CC(C)OC(=O)CC(F)(F)C(=O)N1N=C(c2c(-c3ccc(Cl)cc3)c3ccccc3[nH]c2=O)CC1c1ccc(Cl)cc1` (centres unmarked) [2m]: in series [1], the half-life at 3 μM was 2.9 min and the microsomal CLint at 3 μM was 239 µL/min/mg. In addition, the remaining activity at 30 µM at GluN1/GluN2B [2] was determined as 88 ± 1.3%.
The share remaining is what is left of the initial amount, in per cent. One may read the IC50 as the point on the concentration scale where inhibition reaches its midpoint. For the compound `NC(=O)CC(F)(F)C(=O)N1N=C(c2c(-c3ccc(Cl)cc3)c3ccccc3[nH]c2=O)CC1c1ccc(Cl)cc1` (centres unmarked) [2k], in series [1], the half-life at 3 μM is over 30 min; the amount remaining at 0.5 h, 3 µM is over 90%; the intrinsic metabolic clearance (microsomal CLint) at 3 μM was under 23 µL/min/mg. At GluN1/GluN2B [2], the IC50 stood at 3.1 µM. Moreover, the “I3 μM/Icontrol GluN2B” value at GluN1/GluN2B [3] is listed as 28 ± 4.5 ^b (3,10) %.
For the compound `CNC(=O)CC(F)(F)C(=O)N1N=C(c2c(-c3ccc(Cl)cc3)c3ccccc3[nH]c2=O)CC1c1ccc(Cl)cc1` (centres unmarked) [2q], in series [1], the half-life at 3 μM was at most 7 min and the intrinsic metabolic clearance (microsomal CLint) at 3 μM was 178 µL/min/mg. Moreover, the IC50 at GluN1/GluN2B [2] came to 20 µM. On GluN1/GluN2B [3], the “I / I control GluN2B” value is listed as 81 ± 8.7 ^b (3, 10) %.
`O=C(CC(F)(F)C(=O)N1N=C(c2c(-c3ccc(Cl)cc3)c3ccccc3[nH]c2=O)CC1c1ccc(Cl)cc1)OCc1ccccc1` (centres unmarked) [2p]: in series [1], the half-life at 3 μM is 7.2 min and the microsomal CLint at 3 μM was determined as 96 µL/min/mg. The remaining activity at 30 µM on GluN1/GluN2B [2] worked out at 103 ± 2.1%.
`O=C(O)CC(F)(F)C(=O)N1N=C(c2c(-c3ccc(Cl)cc3)c3ccccc3[nH]c2=O)C[C@H]1c1ccc(Cl)cc1` [(S)-(−)-2i]: the half-inhibitory concentration (IC50) on GluN1/GluN2B [2] was determined as 16 µM. The “% control GluN1/GluN2B” value on GluN1/GluN2B [3] (1 µM compound, 100 µM glutamate, 30 µM glycine) came out at 90 ± 3.5%. The “I3 μM/Icontrol GluN2B” value at GluN1/GluN2B [3] is recorded as 89 ± 6.2 (3, 18) %.
With `O=C(CC(F)(F)C(=O)N1N=C(c2c(-c3ccc(Cl)cc3)c3ccccc3[nH]c2=O)CC1c1ccc(Cl)cc1)OCC1CC1` (centres unmarked) [2n], in series [1], the half-life at 3 μM amounted to 1.8 min and the microsomal CLint at 3 μM was 385 µL/min/mg. Besides, the remaining activity at 30 µM on GluN1/GluN2B [2] was determined as 92 ± 2.1%.
`O=C(O)CCC(=O)N1N=C(c2c(-c3ccc(Cl)cc3)c3ccccc3[nH]c2=O)CC1c1ccc(Cl)cc1` (centres unmarked) [2a]: in series [1], the half-life at 3 μM was over 30 min; the amount remaining at 0.5 h, 3 µM was over 95%; the intrinsic clearance (microsomal CLint) at 3 μM was under 23 µL/min/mg.
In the case of `O=C(O)CC(F)(F)C(=O)N1N=C(c2c(-c3ccc(Cl)cc3)c3ccccc3[nH]c2=O)CC1c1ccc(Cl)cc1` (centres unmarked) [2i], in series [1], the half-life at 3 μM is over 30 min; the share remaining at 0.5 h, 3 µM was over 95%; the intrinsic metabolic clearance (microsomal CLint) at 3 μM was under 23 µL/min/mg. In addition, the IC50 at GluN1/GluN2B [2] amounted to 16 µM. The “I3 μM/Icontrol GluN2B” value on GluN1/GluN2B [3] is 78 ± 2.9% and 78 ± 2.9 ^b (2,10) %. Besides, on GluN1/GluN2B [3] (listed as racemic 2i), the “I3 μM/Icontrol GluN2B” value was 78 ± 2.9 (2, 10) %.
Consider `CCOC(=O)CC(F)(F)C(=O)N1N=C(c2c(-c3ccc(Cl)cc3)c3ccccc3[nH]c2=O)CC1c1ccc(Cl)cc1` (centres unmarked) [2l], for which, in series [1], the half-life at 3 μM was found to be 2.6 min and the microsomal CLint at 3 μM was found to be 267 µL/min/mg. For the same compound, on GluN1/GluN2B [2], the remaining activity at 30 µM is 97 ± 2%.
Regarding `CN(C)C(=O)CC(F)(F)C(=O)N1N=C(c2c(-c3ccc(Cl)cc3)c3ccccc3[nH]c2=O)CC1c1ccc(Cl)cc1` (centres unmarked) [2r], in series [1], the microsomal CLint at 3 μM stood at 231 µL/min/mg. Moreover, on GluN1/GluN2B [3], the “I / I control GluN2B” value is recorded as 78 ± 4.2 ^b (4,22) %.
For the compound `CC(C)(C)COC(=O)CC(F)(F)C(=O)N1N=C(c2c(-c3ccc(Cl)cc3)c3ccccc3[nH]c2=O)CC1c1ccc(Cl)cc1` (centres unmarked) [2o], in series [1], the half-life at 3 μM worked out at 4 min and the intrinsic metabolic clearance (microsomal CLint) at 3 μM amounted to 173 µL/min/mg. The “I / I control GluN2B” value at GluN1/GluN2B [3] amounted to 94 ± 1.0%.
